Measured values as given in the supplement of paper PMC4862054.

How the values were obtained:
Settings in all cases: incubation time: 72 h
DU-4475 [1] = test: normalised response (% of control), CellTiter-Glo; higher = more viable cells (100 = DMSO, 0 = benzethonium chloride kill control)
Outline: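 In 384-well plates holding compound at 5 concentrations in 10-fold steps over a 10,000-fold range specific to each compound, breast cancer cell lines were seeded as 20 µl suspension and incubated 72 h. CellTox Green fluorescence was measured at 485/520 nm, after which CellTiter-Glo luminescence was measured following 10 min at room temperature. Plate signals were normalised to 0.1 % DMSO (100) and a positive kill control (0), and each value is the normalised signal at a single concentration.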

HCC1599 = test: drug sensitivity score (DSS), CellTiter-Glo (DSS (AUC-based score)); higher = stronger drug effect (viability inhibition or cytotoxicity); extreme values may be limits of the assay
Outline: (§1)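 The area under the fitted dose-response curve was used to calculate the drug sensitivity score. Cells from breast cancer lines were incubated for 72 h in 384-well plates with compound at 5 concentrations spaced 10-fold over a 10,000-fold range specific to each compound. Plates were read for CellTox Green and then CellTiter-Glo, and normalised to 0.1 % DMSO and a positive kill control.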

CAL-85-1 = test: as above
Outline: as §1

MCF-10A = test: as above
Outline: as §1

BT-474 = test: as above
Outline: as §1

HDQ-P1 [2] = test: as above
Outline: as §1

BT-549 = test: as above
Outline: as §1

CAL-120 = test: as above
Outline: as §1

CAL-148 [3] = test: as above
Outline: as §1

MDA-MB-231 = test: as above
Outline: as §1

SK-BR-3 = test: as above
Outline: as §1

MDA-MB-436 = test: as above
Outline: as §1

MDA-MB-468 [4] = test: as above
Outline: as §1

Hs578T = test: as above
Outline: as §1

MFM-223 = test: as above
Outline: as §1

HCC1937 = test: as above
Outline: as §1

HCC1143 = test: as above
Outline: as §1

MDA-MB-453 = test: as above
Outline: as §1

DU-4475 [5] = test: as above
Outline: as §1

CAL-51 = test: as above
Outline: as §1

HDQ-P1 [6] = test: drug sensitivity score (DSS), CellTox Green (DSS (AUC-based score)); higher = stronger drug effect (viability inhibition or cytotoxicity); extreme values may be limits of the assay
Outline: as §1

CAL-148 [7] = test: as above
Outline: as §1

MDA-MB-468 [8] = test: as above
Outline: as §1

## CN1CCN(c2nc(C3=C(c4c[nH]c5ccccc45)C(=O)NC3=O)c3ccccc3n2)CC1 [Sotrastaurin] (1000 nM)
DU-4475 [1]
  normalised response: 86.4%

## Cn1nnc2c(C(N)=O)ncn2c1=O [Temozolomide] (1000 nM)
DU-4475 [1]
  normalised response: 95%

## CC(C)(C)Cn1c(N)nc2ccc(-c3[nH]c(C(C)(C)C)nc3-c3ccc(F)cc3)nc21
HCC1599
  drug sensitivity score: 0
CAL-85-1
  drug sensitivity score: 0
MCF-10A
  drug sensitivity score: 3.14
BT-474
  drug sensitivity score: 0.606
HDQ-P1 [2]
  drug sensitivity score: 0
BT-549
  drug sensitivity score: 1.72
CAL-120
  drug sensitivity score: 0.0489
CAL-148 [3]
  drug sensitivity score: 0
MDA-MB-231
  drug sensitivity score: 0
SK-BR-3
  drug sensitivity score: 0.963
MDA-MB-436
  drug sensitivity score: 0
MDA-MB-468 [4]
  drug sensitivity score: 2.74
Hs578T
  drug sensitivity score: 0
MFM-223
  drug sensitivity score: 1.18
HCC1937
  drug sensitivity score: 0
HCC1143
  drug sensitivity score: 0
MDA-MB-453
  drug sensitivity score: 1.72
DU-4475 [5]
  drug sensitivity score: 0
CAL-51
  drug sensitivity score: 0
HDQ-P1 [6]
  drug sensitivity score: 0
CAL-148 [7]
  drug sensitivity score: 0
MDA-MB-468 [8]
  drug sensitivity score: 0

## C[C@@H](C(=O)O)c1ccc(-c2ccccc2)c(F)c1 [Tarenflurbil]
HCC1599
  drug sensitivity score: 0
CAL-85-1
  drug sensitivity score: 0
MCF-10A
  drug sensitivity score: 0
BT-474
  drug sensitivity score: 0
HDQ-P1 [2]
  drug sensitivity score: 0
BT-549
  drug sensitivity score: 0
CAL-120
  drug sensitivity score: 0
CAL-148 [3]
  drug sensitivity score: 0
MDA-MB-231
  drug sensitivity score: 0
SK-BR-3
  drug sensitivity score: 0
MDA-MB-436
  drug sensitivity score: 0
MDA-MB-468 [4]
  drug sensitivity score: 0
Hs578T
  drug sensitivity score: 0
MFM-223
  drug sensitivity score: 0
HCC1937
  drug sensitivity score: 0
HCC1143
  drug sensitivity score: 0
MDA-MB-453
  drug sensitivity score: 0
DU-4475 [5]
  drug sensitivity score: 0
CAL-51
  drug sensitivity score: 0
HDQ-P1 [6]
  drug sensitivity score: 0
CAL-148 [7]
  drug sensitivity score: 0
MDA-MB-468 [8]
  drug sensitivity score: 0
